Data from US8207160B2, “Tetrahydrobenzazepines and their use in he modulation of the dopamine D3 receptor” (Abbott GmbH & Co. KG, priority 2003, dated 2012).
pKi: −log10 of the molar value. Like-named read-outs stand apart in the source and are kept apart here.

Experiments:
[1] = molecular target: T1, human dopamine D3 receptors (Homo sapiens, UniProt P35462); assay: Dopamine D3 receptor binding, displacement of [125I]-iodosulpride
T1 construct: expressed in transfected cells; membranes used
Procedure: (§1) C) Biological Investigations—Receptor-Binding Studies: • The substance to be tested was dissolved either in methanol/Chremophor®) (BASF-AG) or in dimethyl sulfoxide and then diluted with water to the desired concentration.
I. Dopamine D3 Receptor: • The mixture (0.250 ml) was composed of membranes from ˜10^6 HEK-293 cells with stably expressed human dopamine D3 receptors, 0.1 nM [^125I]-iodosulpride and incubation buffer (total binding) or additionally test substance (inhibition plot) or 1 μM spiperone (nonspecific binding). Triplicate assays were carried out. • The incubation buffer contained 50 mM Tris, 120 mM NaCl, 5 mM KCl, 2 mM CaCl2, 2 mM MgCl2 and 0.1% bovine serum albumin, 10 μM quinolone, 0.1% ascorbic acid (prepared freshly each day). The buffer was adjusted to pH 7.4 with HCl.
(§2) III. Measurement and Evaluation: • After incubation at 25° C. for 60 minutes, the mixtures were filtered through Wathman GF/B glass fiber filters under vacuum using a cell harvester. The filters were transferred using a filter transfer system into scintillation vials. After addition of 4 ml of Ultima Gold® (Packard), the samples were shaken for one hour and then the radioactivity was counted in a Beta Counter (Packard, Tricarb 2000 or 2200CA). The cp values were converted into dpm on the basis of a standard quench series with the aid of the program supplied with the instrument. • The inhibition plots were evaluated by iterative nonlinear regression analysis using the Statistical Analysis System (SAS), similar to the “LIGAND” program described by Munson and Rodbard. • The compounds of the invention show very good affinities for the D3 receptor in these assays (<100 nM, frequently <50 nM) and bind selectively to the D3 receptor.

[2] = molecular target: T2, human dopamine D2L receptors (long isoform) (Homo sapiens, UniProt P14416); assay: Dopamine D2L receptor binding, displacement of [125I]-iodospiperone; conditions: Ki(D2L)/Ki(D3); human D2L and D3 receptors in HEK-293 membranes
T2 construct: expressed in transfected cells; membranes used
T2 sequence (P14416 whole entry, canonical isoform): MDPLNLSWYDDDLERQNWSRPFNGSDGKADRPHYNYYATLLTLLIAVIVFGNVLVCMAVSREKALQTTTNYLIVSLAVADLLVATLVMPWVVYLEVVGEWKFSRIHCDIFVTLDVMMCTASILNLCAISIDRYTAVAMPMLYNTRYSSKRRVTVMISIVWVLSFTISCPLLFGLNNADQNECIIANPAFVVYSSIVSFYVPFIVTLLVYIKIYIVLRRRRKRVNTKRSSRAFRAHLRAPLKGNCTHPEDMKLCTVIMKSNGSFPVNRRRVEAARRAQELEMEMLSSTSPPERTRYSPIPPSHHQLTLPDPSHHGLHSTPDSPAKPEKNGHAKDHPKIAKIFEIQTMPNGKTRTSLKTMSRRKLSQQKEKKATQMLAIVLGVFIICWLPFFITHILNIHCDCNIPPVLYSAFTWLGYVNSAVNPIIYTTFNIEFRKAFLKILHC
Procedure: as §1
II. Dopamine D2L receptor: • The mixture (1 ml) was composed of membranes from ˜10^6 HEK-293 cells with stably expressed human dopamine D2L receptors (long isoform) and 0.01 nM [^125I]-iodospiperone and incubation buffer (total binding) or additionally test substance (inhibition plot) or 1 μM haloperidol (nonspecific binding). Triplicate assays were carried out. • The incubation buffer contained 50 mM Tris, 120 mM NaCl, 5 mM KCl, 2 mM CaCl2, 2 mM MgCl2 and 0.1% bovine serum albumin. The buffer was adjusted to 7.4 with HCl.
as §2

[3] = membranes from HEK-293 cells with stably expressed human dopamine D3 receptors, 0.1 nM [125I]-iodosulpride, 25° C., 60 minutes, read-out: Ki (D3)

T1 sequence (P35462 whole entry): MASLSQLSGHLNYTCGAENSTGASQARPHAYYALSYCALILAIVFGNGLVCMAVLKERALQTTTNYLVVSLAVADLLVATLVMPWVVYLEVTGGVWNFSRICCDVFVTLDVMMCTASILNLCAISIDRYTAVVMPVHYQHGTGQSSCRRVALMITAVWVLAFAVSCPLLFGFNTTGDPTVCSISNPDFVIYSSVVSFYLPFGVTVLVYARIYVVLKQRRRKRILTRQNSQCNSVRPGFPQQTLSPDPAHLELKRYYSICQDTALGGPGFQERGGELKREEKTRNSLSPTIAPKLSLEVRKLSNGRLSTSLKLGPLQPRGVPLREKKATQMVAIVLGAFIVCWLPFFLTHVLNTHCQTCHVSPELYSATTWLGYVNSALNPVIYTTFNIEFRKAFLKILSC

SMILES: CCCN1CCc2ccc(NS(=O)(=O)c3ccc(Br)cc3)cc2CC1.O=C(O)C(F)(F)F [Example 19, 4-Bromo-N-(3-Propyl-2,3,4,5-Tetrahydro-1H-3-Benzazepin-7-yl)Benzene-Sulfonamide Trifluoroacetate]
- pKi [1]: 8.52
- Selectivity vs. D2L* [2]: 65

SMILES: CCCN1CCc2ccc(NS(=O)(=O)c3cc(Cl)sc3Cl)cc2CC1.O=C(O)C(F)(F)F [Example 22, N-(3-Propyl-2,3,4,5-Tetrahydro-1H-3-Benzazepin-7-yl)-2,5-Dichlorothiophene-3-Sulfonamide Trifluoroacetate]
- pKi [1]: 7.89
- Selectivity vs. D2L* [2]: 46

SMILES: CC(C)c1ccc(S(=O)(=O)Nc2ccc3c(c2)CCN(CCCF)CC3)cc1.Cl [Example 66, N-[3-(3-Fluoropropyl)-2,3,4,5-Tetrahydro-1H-3-Benzazepin-7-yl]-4-Isopropylbenzenesulfonamide Hydrochloride]
- pKi [1, 3]: 8.92
- Selectivity vs. D2L* [2]: 146

SMILES: CCCN1CCc2ccc(NS(=O)(=O)c3ccc(Cl)cc3)cc2CC1 [Example 3, 4-Chloro-N-(3-Propyl-2,3,4,5-Tetrahydro-1H-3-Benzazepin-7-yl)Benzenesulfonamide]
- pKi [1, 3]: 8.39
- Selectivity vs. D2L* [2]: 68

SMILES: CCCCc1ccc(S(=O)(=O)Nc2ccc3c(c2)CCN(CCC)CC3)cc1.O=C(O)C(F)(F)F [Example 13, 4-Butyl-N-(3-Propyl-2,3,4,5-Tetrahydro-1H-3-Benzazepin-7-yl)Benzene-Sulfonamide Trifluoroacetate]
- pKi [1, 3]: 9.22
- Selectivity vs. D2L* [2]: 143

SMILES: CCCN1CCc2ccc(N(C)S(=O)(=O)c3ccc(C(C)C)cc3)cc2CC1.O=C(O)C(F)(F)F [Example 31, 4-Isopropyl-N-Methyl-N-(3-Propyl-2,3,4,5-tetrahydro-1H-3-Benzazepin-7-yl)Benzenesulfonamide Trifluoroacetate]
- pKi [1, 3]: 9.00
- Selectivity vs. D2L* [2]: 63

SMILES: CCCN1CCc2ccc(NS(=O)(=O)c3ccc(C)cc3)cc2CC1.O=C(O)C(F)(F)F [Example 11, 4-Methyl-N-(3-Propyl-2,3,4,5-Tetrahydro-1H-3-Benzazepin-7-yl)Benzene Sulfonamide Trifluoroacetate]
- pKi [1]: 8.33
- Selectivity vs. D2L* [2]: 112

SMILES: CCCN1CCc2ccc(NS(=O)(=O)c3ccc(OC)cc3)cc2CC1.O=C(O)C(F)(F)F [Example 16, 4-Methoxy-N-(3-Propyl-2,3,4,5-Tetrahydro-1H-3-Benzazepin-7-yl)Benzene-Sulfonamide Trifluoroacetate]
- pKi [1, 3]: 8.09
- Selectivity vs. D2L* [2]: 142

SMILES: C=Cc1ccc(S(=O)(=O)Nc2ccc3c(c2)CCN(CCC)CC3)cc1.Cl [Example 4, N-(3-Propyl-2,3,4,5-Tetrahydro-1H-3-Benzazepin-7-yl)-4-Vinylbenzenesulfonamide Hydrochloride]
- pKi [1, 3]: 9.30
- Selectivity vs. D2L* [2]: 435

SMILES: CCCN1CCc2ccc(NS(=O)(=O)c3ccc(C(C)=O)cc3)cc2CC1 [Example 10, 4-Acetyl-N-(3-Propyl-2,3,4,5-Tetrahydro-1H-3-Benzazepin-7-yl)Benzenesulfonamide]
- pKi [1, 3]: 7.78
- Selectivity vs. D2L* [2]: 271

SMILES: C=CCN1CCc2ccc(NS(=O)(=O)c3ccc(C(C)C)cc3)cc2CC1.Cl [Example 65, N-(3-Allyl-2,3,4,5-Tetrahydro-1H-3-Benzazepin-7-yl)-4-(Isopropyl)Benzenesulfonamide Hydrochloride]
- pKi [1, 3]: 9.40
- Selectivity vs. D2L* [2]: 141

SMILES: CCCN1CCc2ccc(NS(=O)(=O)c3ccc4ccccc4c3)cc2CC1.O=C(O)C(F)(F)F [Example 17, N-(3-Propyl-2,3,4,5-Tetrahydro-1H-3-Benzazepin-7-yl)Naphthalene-2-Sulfonamide Trifluoroacetate]
- pKi [1, 3]: 8.35
- Selectivity vs. D2L* [2]: 68

SMILES: CCCN1CCc2ccc(NS(=O)(=O)c3ccc(C(F)(F)F)cc3)cc2CC1.Cl [Example 6, N-(3-Propyl-2,3,4,5-Tetrahydro-1H-3-Benzazepin-7-yl)-4-(Trifluoromethyl)-Benzenesulfonamide Hydrochloride]
- pKi [1, 3]: 8.24
- Selectivity vs. D2L* [2]: 252

SMILES: CC(C)c1ccc(S(=O)(=O)Nc2ccc3c(c2)CCN(CC2CC2)CC3)cc1.Cl [Example 57, N-(3-Cyclopropylmethyl-2,3,4,5-Tetrahydro-1H-3-Benzazepin-7-yl)4-Isopropylbenzenesulfonamide Hydrochloride]
- pKi [1, 3]: 8.68
- Selectivity vs. D2L* [2]: 115

SMILES: CC(C)c1ccc(S(=O)(=O)Nc2ccc3c(c2)CCN(C)CC3)cc1.Cl [Example 56, 4-Isopropyl-N-(3-Methyl-2,3,4,5-Tetrahydro-1H-3-Benzazepin-7-yl)Benzenesulfonamide Hydrochloride]
- pKi [1, 3]: 8.92
- Selectivity vs. D2L* [2]: 66

SMILES: C=CCN1CCc2ccc(NS(=O)(=O)c3ccc(C(F)(F)F)cc3)cc2CC1.Cl [Example 58, N-(3-Allyl-2,3,4,5-Tetrahydro-1H-3-Benzazepin-7-yl)4-(Trifluoromethyl)Benzenesulfonamide Hydrochloride]
- pKi [1, 3]: 8.47
- Selectivity vs. D2L* [2]: 84

SMILES: CCCN1CCc2ccc(NS(=O)(=O)c3c(C)cc(C)cc3C)cc2CC1.O=C(O)C(F)(F)F [Example 12, 2,4,6-Trimethyl-N-(3-Propyl-2,3,4,5-Tetrahydro-1H-3-Benzazepin-7-yl)-Benzenesulfonamide Trifluoroacetate]
- pKi [1, 3]: 8.14
- Selectivity vs. D2L* [2]: 90

SMILES: CCCN1CCc2ccc(NS(=O)(=O)c3ccc(Cl)cc3Cl)cc2CC1.O=C(O)C(F)(F)F [Example 18, 2,4-Dichloro-N-(3-Propyl-2,3,4,5-Tetrahydro-1H-3-Benzazepin-7-yl)Benzenesulfonamide Trifluoroacetate]
- pKi [1, 3]: 8.14
- Selectivity vs. D2L* [2]: 85

SMILES: CCCN1CCc2ccc(NS(=O)(=O)c3ccc(Br)cc3C)cc2CC1.O=C(O)C(F)(F)F [Example 20, 4-Bromo-2-Methyl-N-(3-Propyl-2,3,4,5-Tetrahydro-1H-3-Benzazepin-7-yl)-Benzenesulfonamide Trifluoroacetate]
- pKi [1, 3]: 8.15
- Selectivity vs. D2L* [2]: 85

SMILES: CCCN1CCc2ccc(NS(=O)(=O)c3ccc(C(C)C)cc3)cc2CC1.Cl [Example 8, 4-Isopropyl-N-(3-Propyl-2,3,4,5-Tetrahydro-1H-3-Benzazepin-7-yl)Benzenesulfonamide Hydrochloride]
- pKi [1, 3]: 9.52
- Selectivity vs. D2L* [2]: 330

SMILES: CCCN1CCc2ccc(NS(=O)(=O)c3ccc(C(C)(C)CC)cc3)cc2CC1.O=C(O)C(F)(F)F [Example 14, 4-(1,1-Dimethylpropyl)-N-(3-Propyl-2,3,4,5-Tetrahydro-1H-3-Benzazepin-7-yl)Benzenesulfonamide Trifluoroacetate]
- pKi [1, 3]: 8.44
- Selectivity vs. D2L* [2]: 113

SMILES: CCCN1CCc2ccc(NS(=O)(=O)c3ccc(CC)cc3)cc2CC1.Cl [Example 5, 4-Ethyl-N-(3-Propyl-2,3,4,5-Tetrahydro-1H-3-Benzazepin-7-yl)Benzenesulfonamide Hydrochloride]
- pKi [1, 3]: 9.00
- Selectivity vs. D2L* [2]: 368

SMILES: CCCN1CCc2ccc(S(=O)(=O)Nc3ccc(OC(F)(F)F)cc3)cc2CC1.Cl [Example 35, 3-Propyl-N-[4-(Trifluoromethoxy)Phenyl]-2,3,4,5-Tetrahydro-1H-3-Benzazepine-7-Sulfonamide Hydrochloride]
- pKi [1, 3]: 7.55
- Selectivity vs. D2L* [2]: 40

SMILES: CCCN1CCc2ccc(NS(=O)(=O)c3ccc(C(C)(C)C)cc3)cc2CC1.Cl [Example 7, 4-Tert-Butyl-N-(3-Propyl-2,3,4,5-Tetrahydro-1H-3-Benzazepin-7-yl)Benzenesulfonamide Hydrochloride]
- pKi [1, 3]: 8.39
- Selectivity vs. D2L* [2]: 120

SMILES: CCCN1CCc2ccc(NS(=O)(=O)c3ccc(Cl)s3)cc2CC1.O=C(O)C(F)(F)F [Example 21, N-(3-Propyl-2,3,4,5-Tetrahydro-1H-3-Benzazepin-7-yl)-5-Chlorothiophene-2-Sulfonamide Trifluoroacetate]
- pKi [1]: 7.80
- Selectivity vs. D2L* [2]: 47

SMILES: CCCN1CCc2ccc(NS(=O)(=O)c3ccc(OC(F)(F)F)cc3)cc2CC1 [Example 2, N-(3-Propyl-2,3,4,5-Tetrahydro-1H-3-Benzazepin-7-yl)-4-Trifluoromethoxy-Benzenesulfonamide]
- pKi [1, 3]: 8.15
- Selectivity vs. D2L* [2]: 99

SMILES: CCCN1CCc2ccc(CS(=O)(=O)c3ccc(C(C)C)cc3)cc2CC1 [Example 36, 7-(4-Isopropylbenzenesulfonylmethyl)-3-Propyl-2,3,4,5-Tetrahydro-1H-3-Benzazepine]
- pKi [1, 3]: 9.00
- Selectivity vs. D2L* [2]: 446
